Results taken from US8575091B1, “Amylin analogues and pharmaceutical compositions thereof” (Novo Nordisk A/S, priority 2012, dated 2013).
pEC50, pIC50: −log10 of the molar value. Where two headings read alike, the source gives them in different places. Numbered stars: 1 amine (or outer) side, 2 acyl side, 3 side chain; on linkers, the order of the positions; unused ones are H or OH. Bridge positions count the residues as written; N and C are the ends. Side chains are listed from the residue outwards. Peptide text beside a SMILES is read from it. * marks the point of attachment. C20 diacid = O=C(O)CCCCCCCCCCCCCCCCCCC(=O)*; γGlu = O=C(O)[C@H](CCC(=O)[*:2])N[*:1]

Experiments:
[1] = target: T1, human amylin receptor (amylin 3(a) receptor: human calcitonin receptor + RAMP-3) (Homo sapiens, UniProt O60896+P30988); assay: Assay (II)a functional assay, human amylin receptor (CRE luciferase, BHK cells); type: cell-based; details: for pEC50: read-out: hAmylin-R funct. EC50
T1 construct: expressed in transfected cells
T1 sequence (P30988 25-474): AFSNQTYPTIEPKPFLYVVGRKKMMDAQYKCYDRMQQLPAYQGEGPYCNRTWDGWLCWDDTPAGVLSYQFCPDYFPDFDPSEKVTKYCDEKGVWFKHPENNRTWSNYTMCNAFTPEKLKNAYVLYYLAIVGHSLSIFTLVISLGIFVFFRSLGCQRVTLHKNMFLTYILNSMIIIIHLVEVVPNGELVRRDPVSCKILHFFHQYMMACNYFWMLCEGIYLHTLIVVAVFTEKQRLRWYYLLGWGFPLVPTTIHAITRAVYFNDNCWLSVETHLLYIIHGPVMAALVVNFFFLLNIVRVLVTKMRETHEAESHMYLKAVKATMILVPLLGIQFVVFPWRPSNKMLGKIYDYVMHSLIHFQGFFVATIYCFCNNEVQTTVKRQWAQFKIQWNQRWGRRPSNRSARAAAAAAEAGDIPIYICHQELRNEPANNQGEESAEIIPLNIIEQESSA
T1 sequence (O60896 24-148 partner): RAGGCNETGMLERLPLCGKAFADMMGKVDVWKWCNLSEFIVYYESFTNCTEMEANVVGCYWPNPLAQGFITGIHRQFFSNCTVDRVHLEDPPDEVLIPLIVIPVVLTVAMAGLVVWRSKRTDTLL

[2] = target: T2, human calcitonin receptor (Homo sapiens, UniProt P30988); assay: Assay (II)a functional assay, human calcitonin receptor (CRE luciferase, BHK cells);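 further: luminescence from a CRE-driven luciferase reporter, read by single photon counting after cells were exposed to test samples for 3 h at 37 °C under 5% CO2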; type: cell-based; details: read-out: hCTR funct. EC50
T2 construct: expressed in transfected cells
T2 sequence (P30988 25-474): T1 sequence (P30988 25-474)

[3] = target: T3, human amylin receptor (Homo sapiens, UniProt O60896+P30988); assay: Assay (V) binding to the human amylin receptor (SPA, 125I-rat amylin); details: for pIC50: human amylin receptor membranes, SPA, read-out: hAmylin-R bind IC50
T3 construct: expressed in transfected cells
T3 sequence (P30988 25-474): T1 sequence (P30988 25-474)
T3 sequence (O60896 24-148 partner): T1 sequence (O60896 24-148 partner)
In short: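 SPA competition binding on membranes from Amylin 3(a)/CRE-luc cells, 35 ng/μL membranes with 0.05 mg/well beads. Buffer 50 mM Hepes pH 7.4, 1 mM CaCl2, 5 mM MgCl2, 0.1% OA, 0.02% Tween20. IC50 from one-site competition fit as affinity measure.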

[4] = target: T2, human calcitonin receptor; assay: Assay (VII) binding to the human calcitonin receptor (SPA, 125I-Calcitonin); details: read-out: hCTR bind IC50;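 further: cell membranes coupled to SPA beads, competitive displacement read by scintillation counting, IC50 derived from a one-site competition fit as a measure of receptor affinity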
[5] = functional assay, human amylin receptor
[6] = Table 6, human functional selectivity (hCTR EC50 / hAmylin-R EC50)
[7] = Table 6a, human functional selectivity (hCTR EC50 / hAmylin-R EC50), at least 5
[8] = Table 6j, hCTR funct. EC50 / hAmylin-R funct. EC50
[9] = human binding ratio, included for comparison

SMILES	pEC50 [1, 5]	pEC50 [2]	pIC50 [3]	pIC50 [4]	Ratio hCT/hAmylin funct. [1, 6]	Ratio hCT/hAmylin funct. [1, 7]	Ratio hCT/hAmylin funct. ([1]; Table 6i, hCTR funct. EC50 / hAmylin-R funct. EC50)	pEC50 ([1]; Table 6i, human amylin receptor functional)	Ratio hCT/hAmylin funct. [1, 8]	Ratio hCT/hAmylin binding [3, 9]	pEC50 ([1]; Table 6j, human amylin receptor functional)	Ratio hCT/hAmylin funct. ([1]; Table 6k, hCTR funct. EC50 / hAmylin-R funct. EC50)	Ratio hCT/hAmylin binding ([3]; Table 7b, human calcitonin receptor binding IC50 divided by human amylin receptor binding IC50)	Ratio hCT/hAmylin binding ([3]; Table 7c, human calcitonin receptor binding IC50 divided by human amylin receptor binding IC50)
CC[C@H](C)[C@H](NC(=O)[C@H](C)NC(=O)CNC(=O)[C@H](Cc1ccccc1)NC(=O)[C@H](CC(N)=O)NC(=O)[C@@H]1CCCN1C(=O)[C@H](CO)NC(=O)[C@H](CO)NC(=O)[C@H](Cc1c[nH]cn1)NC(=O)[C@H](CCCNC(=N)N)NC(=O)[C@H](CC(C)C)NC(=O)[C@H](Cc1ccccc1)NC(=O)[C@H](CC(N)=O)NC(=O)[C@H](C)NC(=O)[C@H](CC(C)C)NC(=O)[C@H](CCCNC(=N)N)NC(=O)[C@H](CCC(N)=O)NC(=O)[C@@H](NC(=O)[C@H](C)NC(=O)[C@@H]1CSSC[C@H](NC(=O)[C@@H](N)CCCCNC(=O)COCCOCCNC(=O)COCCOCCNC(=O)CC[C@H](NC(=O)CCCCCCCCCCCCCCCCCCC(=O)O)C(=O)O)C(=O)N[C@@H](CC(N)=O)C(=O)N[C@@H]([C@@H](C)O)C(=O)N[C@@H](C)C(=O)N[C@@H]([C@@H](C)O)C(=O)N1)[C@@H](C)O)C(=O)N1CCC[C@H]1C(=O)N[C@@H](CO)C(=O)N[C@@H](CO)C(=O)N[C@H](C(=O)N[C@@H](CC(N)=O)C(=O)N[C@H](C(=O)NCC(=O)N[C@@H](CO)C(=O)N[C@@H](CCC(=O)O)C(=O)N[C@H](C(=O)N[C@@H](Cc1ccc(O)cc1)C(N)=O)[C@@H](C)O)C(C)C)[C@@H](C)O [Example 25]	9.66	8.00	9.11	7.36	–	–	–	–	–	–	–	–	–	–
CC[C@H](C)[C@H](NC(=O)[C@H](C)NC(=O)CNC(=O)[C@H](Cc1ccccc1)NC(=O)[C@H](CC(N)=O)NC(=O)[C@@H]1CCCN1C(=O)[C@H](CO)NC(=O)[C@H](CO)NC(=O)[C@H](Cc1c[nH]cn1)NC(=O)[C@H](CCCNC(=N)N)NC(=O)[C@H](CC(C)C)NC(=O)[C@H](Cc1ccccc1)NC(=O)[C@H](Cc1c[nH]cn1)NC(=O)[C@H](C)NC(=O)[C@H](CC(C)C)NC(=O)[C@H](CCCNC(=N)N)NC(=O)[C@H](CCC(N)=O)NC(=O)[C@@H](NC(=O)[C@H](C)NC(=O)[C@@H]1CSSC[C@H](NC(=O)[C@@H](N)CCCCNC(=O)CC[C@H](NC(=O)CCCCCCCCCCCCCCCCCCC(=O)O)C(=O)O)C(=O)N[C@@H](CC(N)=O)C(=O)N[C@@H]([C@@H](C)O)C(=O)N[C@@H](C)C(=O)N[C@@H]([C@@H](C)O)C(=O)N1)[C@@H](C)O)C(=O)N1CCC[C@H]1C(=O)N[C@@H](CO)C(=O)N[C@@H](CO)C(=O)N[C@H](C(=O)N[C@@H](CC(N)=O)C(=O)N[C@H](C(=O)NCC(=O)N1CCC[C@H]1C(=O)N[C@@H](CC(N)=O)C(=O)N[C@H](C(=O)N[C@@H](Cc1ccc(O)cc1)C(N)=O)[C@@H](C)O)C(C)C)[C@@H](C)O [Example 67] (H-K([γGlu-C20 diacid])CNTATCATQRLAHFLRHSSPNFGAIPSSTNVGPNTY-NH2; disulfide 2-7)	–	9.45	10.05	8.33	5.2	5.2	–	–	5.2	–	10.16	5.2	–	–
CC[C@H](C)[C@H](NC(=O)[C@H](C)NC(=O)CNC(=O)[C@H](Cc1ccccc1)NC(=O)[C@H](CC(N)=O)NC(=O)[C@@H]1CCCN1C(=O)[C@H](CO)NC(=O)[C@H](CO)NC(=O)[C@H](Cc1c[nH]cn1)NC(=O)[C@H](CCCNC(=N)N)NC(=O)[C@H](CC(C)C)NC(=O)[C@H](Cc1ccccc1)NC(=O)[C@H](CC(N)=O)NC(=O)[C@H](C)NC(=O)[C@H](CC(C)C)NC(=O)[C@H](CCCNC(=N)N)NC(=O)[C@H](CCC(N)=O)NC(=O)[C@@H](NC(=O)[C@H](C)NC(=O)[C@@H]1CSSC[C@H](NC(=O)[C@H](CCCCN)NC(=O)COCCOCCNC(=O)COCCOCCNC(=O)CC[C@H](NC(=O)CCCCCCCCCCCCCCCCCCC(=O)O)C(=O)O)C(=O)N[C@@H](CC(N)=O)C(=O)N[C@@H]([C@@H](C)O)C(=O)N[C@@H](C)C(=O)N[C@@H]([C@@H](C)O)C(=O)N1)[C@@H](C)O)C(=O)N1CCC[C@H]1C(=O)N[C@@H](CO)C(=O)N[C@@H](CO)C(=O)N[C@H](C(=O)N[C@@H](CC(N)=O)C(=O)N[C@H](C(=O)NCC(=O)N[C@@H](CO)C(=O)N[C@@H](CC(N)=O)C(=O)N[C@H](C(=O)N[C@@H](Cc1ccc(O)cc1)C(N)=O)[C@@H](C)O)C(C)C)[C@@H](C)O [Example 24]	9.36	8.00	8.94	6.99	–	–	–	–	–	90.0	–	–	90.0	90.0

The next lines start with the values.

pEC50 [1, 5]	pEC50 [2]	pIC50 [3]	pIC50 [4]	Ratio hCT/hAmylin funct. [1, 6]	Ratio hCT/hAmylin funct. [1, 7]	Ratio hCT/hAmylin funct. ([1]; Table 6i, hCTR funct. EC50 / hAmylin-R funct. EC50)	pEC50 ([1]; Table 6i, human amylin receptor functional)	Ratio hCT/hAmylin funct. [1, 8]	Ratio hCT/hAmylin binding [3, 9]	pEC50 ([1]; Table 6j, human amylin receptor functional)	Ratio hCT/hAmylin funct. ([1]; Table 6k, hCTR funct. EC50 / hAmylin-R funct. EC50)	Ratio hCT/hAmylin binding ([3]; Table 7b, human calcitonin receptor binding IC50 divided by human amylin receptor binding IC50)	Ratio hCT/hAmylin binding ([3]; Table 7c, human calcitonin receptor binding IC50 divided by human amylin receptor binding IC50)	SMILES
9.42	7.00	9.44	6.95	–	–	–	–	–	–	–	–	–	–	CC[C@H](C)[C@H](NC(=O)[C@H](C)NC(=O)CNC(=O)[C@H](Cc1ccccc1)NC(=O)[C@H](CC(N)=O)NC(=O)[C@@H]1CCCN1C(=O)[C@H](CO)NC(=O)[C@H](CO)NC(=O)[C@H](Cc1c[nH]cn1)NC(=O)[C@H](CCCNC(=N)N)NC(=O)[C@H](CC(C)C)NC(=O)[C@H](Cc1ccccc1)NC(=O)[C@@H](CC(=O)O)NC(=O)[C@H](C)NC(=O)[C@H](CC(C)C)NC(=O)[C@H](CCCNC(=N)N)NC(=O)[C@H](CCC(N)=O)NC(=O)[C@@H](NC(=O)[C@H](C)NC(=O)[C@@H]1CSSC[C@H](NC(=O)[C@@H](N)CCCCNC(=O)CC[C@H](NC(=O)CC[C@H](NC(=O)CCCCCCCCCCCCCCCCCCC(=O)O)C(=O)O)C(=O)O)C(=O)N[C@@H](CC(N)=O)C(=O)N[C@@H]([C@@H](C)O)C(=O)N[C@@H](C)C(=O)N[C@@H]([C@@H](C)O)C(=O)N1)[C@@H](C)O)C(=O)N1CCC[C@H]1C(=O)N[C@@H](CO)C(=O)N[C@@H](CO)C(=O)N[C@H](C(=O)N[C@@H](CC(N)=O)C(=O)N[C@H](C(=O)NCC(=O)N[C@@H](CO)C(=O)N[C@@H](CCCNC(=N)N)C(=O)N[C@H](C(=O)N[C@@H](Cc1ccc(O)cc1)C(N)=O)[C@@H](C)O)C(C)C)[C@@H](C)O [Example 131]
–	8.89	9.84	8.94	7.4	7.4	7.4	9.76	7.4	8.0	–	–	–	–	CC[C@H](C)[C@H](NC(=O)[C@H](C)NC(=O)CNC(=O)[C@H](Cc1ccccc1)NC(=O)[C@H](CC(N)=O)NC(=O)[C@@H]1CCCN1C(=O)[C@H](CO)NC(=O)[C@H](CO)NC(=O)[C@H](Cc1c[nH]cn1)NC(=O)[C@H](CCCNC(=N)N)NC(=O)[C@H](CC(C)C)NC(=O)[C@H](Cc1ccccc1)NC(=O)[C@H](CCC(=O)O)NC(=O)[C@H](C)NC(=O)[C@H](CC(C)C)NC(=O)[C@H](CCCNC(=N)N)NC(=O)[C@H](CCC(N)=O)NC(=O)[C@@H](NC(=O)[C@H](C)NC(=O)[C@@H]1CSSC[C@H](NC(=O)[C@H](CCCCN)NC(=O)CC[C@H](NC(=O)CCCCCCCCCCCCCCCCCCC(=O)O)C(=O)O)C(=O)N[C@@H](CC(N)=O)C(=O)N[C@@H]([C@@H](C)O)C(=O)N[C@@H](C)C(=O)N[C@@H]([C@@H](C)O)C(=O)N1)[C@@H](C)O)C(=O)N1CCC[C@H]1C(=O)N[C@@H](CO)C(=O)N[C@@H](CO)C(=O)N[C@H](C(=O)N[C@@H](CC(N)=O)C(=O)N[C@H](C(=O)NCC(=O)N[C@@H](CO)C(=O)N[C@@H](CC(N)=O)C(=O)N[C@H](C(=O)N[C@@H](Cc1ccc(O)cc1)C(N)=O)[C@@H](C)O)C(C)C)[C@@H](C)O [Example 9]
